In one assay the target is SHP2 (Homo sapiens (Human), UniProt Q06124). Put plainly: SHP2 Biochemical Assay (DiFMUP conversion, pIRS1 activating peptide). As to conditions: DiFMUP substrate, 0.25 μM pIRS1 peptide, 30 min pre-incubation; average where more than one data point; read-out: SHP2 (IC50).
For another assay, the system named is pERK in HCC827 cells. In words: Cellular pERK Inhibition Assay (phospho-p44/42 MAPK sandwich ELISA). Type of assay: cell-based. The method, then:
Cellular pERK Inhibition Assay
HCC827 cells (ATCC, Manassas, USA) were seeded into 96-well plates at a density of 1×10^5 cells/well in RPMI medium supplemented with 10% FBS and incubated 24 h. Compounds were diluted first in DMSO and then into serum-free medium, before being added to cells in triplicate to give a final concentration of 0.1% DMSO. Plates were incubated at 37° C. for 0.5 hours in a humidified atmosphere of 5% CO2 in air.
Following compound treatment, medium was removed and cells were lysed by adding 50 μL of lysis buffer (Cell Signalling Technology, Beverly, USA) to each well. Plates were then incubated at room temperature for 25 minutes with shaking. pERK levels were measured in lysates using the PathScan® phospho-p44/42 MAPK (Thr202/Tyr204) sandwich ELISA (Cell Signalling Technology, Beverly, USA) as per kit instructions. Briefly, 50 μL of cell lysate was added to 50 μL of ELISA sample diluent in a 96-well ELISA plate and incubated overnight at 4° C. Following washing, 100 μL of detection antibody was added per well and the plates incubated for 1 hour at 37° C. […] Plates were read at 450 nm on a SpectraMax Gemini reader (Molecular Devices, Uckfield, UK).
The average signal from blank wells (no cells added) was subtracted from the signals from each sample well. Levels of pERK were then expressed as “percent of control”, using DMSO treated samples as control. […]
(An ELISA detects its analyte on a solid surface through an enzyme-linked reagent.)

The structures appear in SMILES notation. Structures can show the parent of a compound that is named as a salt.

Chain of SHP2 (Q06124 whole entry): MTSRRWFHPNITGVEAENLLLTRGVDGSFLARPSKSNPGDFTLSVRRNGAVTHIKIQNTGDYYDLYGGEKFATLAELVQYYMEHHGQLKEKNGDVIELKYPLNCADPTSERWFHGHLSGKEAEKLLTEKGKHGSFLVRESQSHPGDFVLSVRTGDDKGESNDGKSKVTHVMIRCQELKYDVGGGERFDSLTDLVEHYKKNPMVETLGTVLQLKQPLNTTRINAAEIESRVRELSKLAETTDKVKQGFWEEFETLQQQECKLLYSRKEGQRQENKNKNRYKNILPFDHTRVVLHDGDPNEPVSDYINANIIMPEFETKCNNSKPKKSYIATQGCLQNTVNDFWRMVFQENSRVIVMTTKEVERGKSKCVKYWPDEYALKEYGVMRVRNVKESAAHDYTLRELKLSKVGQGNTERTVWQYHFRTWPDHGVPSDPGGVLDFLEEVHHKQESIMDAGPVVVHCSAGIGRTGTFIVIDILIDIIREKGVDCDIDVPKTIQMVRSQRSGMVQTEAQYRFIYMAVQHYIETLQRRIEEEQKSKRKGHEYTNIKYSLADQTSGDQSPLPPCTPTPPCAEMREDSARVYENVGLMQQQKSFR

As a reminder, the IC50 is the concentration that inhibits the measured activity by half. In the case of `COc1ccc2ccc(-c3c[nH]c4nc(N5[C@@H]6CC[C@H]5C[C@@H](N)C6)cnc34)c(Cl)c2n1` [Example 27, endo-8-[7-(8-chloro-2-methoxyquinolin-7-yl)-5H-pyrrolo[2,3-b]pyrazin-3-yl]-8-azabicyclo[3.2.1]octan-3-amine, hydrochloride salt], the IC50 at SHP2 is 17 nM. In addition, in the assay on pERK in HCC827 cells (at 10 uM), the “Cellular pERK assay (percent at stated concentration)” value turned out to be 53% at 10 uM.

`COc1cc2c(Cl)c(-c3c[nH]c4nc(N5[C@@H]6CC[C@H]5C[C@@H](N)C6)cnc34)ccc2nc1C` [Example 42, endo-8-[7-(5-chloro-3-methoxy-2-methylquinolin-6-yl)-5H-pyrrolo[2,3-b]pyrazin-3-yl]-8-azabicyclo[3.2.1]octan-3-amine]: on SHP2, the half-inhibitory concentration (IC50) amounted to 17 nM. Moreover, the “Cellular pERK assay (percent at stated concentration)” value in the assay on pERK in HCC827 cells (at 1 μM) came to 24% at 1 μM.

On to `CC(C)Oc1cnc2ccc(-c3n[nH]c4nc(N5[C@H]6CC[C@@H]5[C@@H](F)[C@@H](N)C6)c(CO)nc34)c(Cl)c2n1` [Example 144, {6-[(1R,2S,3S,5S)-3-amino-2-fluoro-8-azabicyclo[3.2.1]octan-8-yl]-3-[5-chloro-3-(propan-2-yloxy)quinoxalin-6-yl]-1H-pyrazolo[3,4-b]pyrazin-5-yl}methanol], for which, on SHP2, the concentration for half-maximal inhibition (IC50) was 28 nM.

For `Cc1nc2c(-c3ccc4nn(C(C)C)c(C#N)c4c3Cl)n[nH]c2nc1N1[C@H]2CC[C@@H]1[C@@H](F)[C@@H](N)C2` [Example 145, 5-{6-[(1R,2S,3S,5S)-3-amino-2-fluoro-8-azabicyclo[3.2.1]octan-8-yl]-5-methyl-1H-pyrazolo[3,4-b]pyrazin-3-yl}-4-chloro-2-(propan-2-yl)-2H-indazole-3-carbonitrile, hydrochloride], the IC50 at SHP2 came out at 36 nM.

Consider `N[C@H]1C[C@@H]2CC[C@H]([C@H]1F)N2c1nc2[nH]nc(-c3ccc4ncc(N5CCOCC5)nc4c3Cl)c2nc1CO` [Example 147, {6-[(1R,2S,3S,5S)-3-amino-2-fluoro-8-azabicyclo[3.2.1]octan-8-yl]-3-[5-chloro-3-(morpholin-4-yl)quinoxalin-6-yl] 1H-pyrazolo[3,4-b]pyrazin-5-yl}methanol], for which, on SHP2, the concentration for half-maximal inhibition (IC50) was 14 nM.

Consider `Cc1nc2c(-c3ccc4ncc(N5CCOCC5)nc4c3Cl)n[nH]c2nc1N1[C@H]2CC[C@@H]1[C@@H](F)[C@@H](N)C2` [Example 148, (1R,2S,3S,5S)-8-{3-[5-chloro-3-(morpholin-4-yl)quinoxalin-6-yl] 5-methyl-1H-pyrazolo[3,4-b]pyrazin-6-yl}-2-fluoro-8-azabicyclo[3.2.1]octan-3-amine], for which, at SHP2, the half-inhibitory concentration (IC50) was found to be 25 nM.

For `CC(C)n1nc2ccc(-c3n[nH]c4nc(N5[C@H]6CC[C@@H]5[C@@H](F)[C@@H](N)C6)c(CO)nc34)c(Cl)c2c1C#N` [Example 149, 5-{6-[(1R,2S,3S,5S)-3-amino-2-fluoro-8-azabicyclo[3.2.1]octan-8-yl]-5-(hydroxymethyl)-1H-pyrazolo[3,4-b]pyrazin-3-yl}-4-chloro-2-(propan-2-yl)-2H-indazole-3-carbonitrile], the IC50 on SHP2 came out at 14 nM.

Take `N[C@H]1C[C@@H]2CC[C@H]([C@H]1F)N2c1nc2[nH]nc(-c3ccc4ncc(N5CCC5)nc4c3Cl)c2nc1CO` [Example 150, {6-[(1R,2S,3S,5S)-3-amino-2-fluoro-8-azabicyclo[3.2.1]octan-8-yl]-3-[3-(azetidin-1-yl)-5-chloroquinoxalin-6-yl]-1H-pyrazolo[3,4-b]pyrazin-5-yl}methanol]: the IC50 on SHP2 was 15 nM.

Values taken from patent US11466016B2, “Pharmaceutical compounds” (priority 2018, dated 2022).
